Values quoted from earlier work in US8445527B2, “Organic compounds and their uses” (Novartis AG, priority 2006, dated 2013).

Test system: HCV
Conditions: ribavirin alone

Compound: NC(=O)c1ncn([C@@H]2O[C@H](CO)[C@@H](O)[C@H]2O)n1 [Ribavirin, 1-β-D-ribofuranosyl-1-1,2,4-triazole-3-caroxamide]
- patients in whom serum amino transferase levels are reduced to normal: 40%
- serum levels of HCV-RNA: does not lower
